Data published in ChEMBL document CHEMBL4507269, “Data for DCP probe BAY-386” (2021).

Tests used:
[1] = molecular target: Somatostatin receptor type 4 (Homo sapiens) (UniProt P31391); experiment: sst4 (h) Eurofins-Cerep Cellular and Nuclear Receptor Functional Assays; conditions: Compound concentration 10.0 uM
[2] = tested on: Tyrosine-protein kinase ABL1 (Homo sapiens), P00519 [H396P]; conditions: Compound concentration 1000.0 nM
[3] = tested on: Tyrosine-protein kinase ABL1 (Homo sapiens), P00519 [T315I]; conditions: Compound concentration 1000.0 nM
[4] = tested on: ALK tyrosine kinase receptor (Homo sapiens), Q9UM73 [L1196M]; conditions: Compound concentration 1000.0 nM
[5] = molecular target: Calcium/calmodulin-dependent protein kinase kinase 1 (Homo sapiens) (UniProt Q8N5S9); conditions: Compound concentration 1000.0 nM
[6] = molecular target: Cyclin-dependent kinase 2 (Homo sapiens) (UniProt P24941); conditions: Compound concentration 1000.0 nM
[7] = molecular target: Dual specificity tyrosine-phosphorylation-regulated kinase 1B (Homo sapiens) (UniProt Q9Y463); conditions: Compound concentration 1000.0 nM
[8] = molecular target: Ephrin type-B receptor 3 (Homo sapiens) (UniProt P54753); conditions: Compound concentration 1000.0 nM
[9] = molecular target: Serine/threonine-protein kinase/endoribonuclease IRE1 (Homo sapiens) (UniProt O75460); conditions: Compound concentration 1000.0 nM
[10] = molecular target: Tyrosine-protein kinase Fyn (Homo sapiens) (UniProt P06241); conditions: Compound concentration 1000.0 nM
Tyrosine-protein kinase Fyn (Homo sapiens), sequence (P06241 2-537 limits assumed): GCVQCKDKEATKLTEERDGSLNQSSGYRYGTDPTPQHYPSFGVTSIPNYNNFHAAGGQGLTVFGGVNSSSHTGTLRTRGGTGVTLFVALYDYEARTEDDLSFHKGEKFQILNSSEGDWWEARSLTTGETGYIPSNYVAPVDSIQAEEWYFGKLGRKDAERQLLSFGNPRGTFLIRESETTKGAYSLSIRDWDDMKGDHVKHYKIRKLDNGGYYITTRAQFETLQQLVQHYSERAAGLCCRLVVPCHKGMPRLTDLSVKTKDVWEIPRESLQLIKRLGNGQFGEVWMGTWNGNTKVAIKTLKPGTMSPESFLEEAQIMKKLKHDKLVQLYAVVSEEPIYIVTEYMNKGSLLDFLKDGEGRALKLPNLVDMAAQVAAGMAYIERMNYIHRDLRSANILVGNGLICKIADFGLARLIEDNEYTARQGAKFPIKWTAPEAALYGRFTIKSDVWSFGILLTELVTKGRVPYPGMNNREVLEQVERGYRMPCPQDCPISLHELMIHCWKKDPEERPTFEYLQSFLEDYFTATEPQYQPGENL

[11] = molecular target: Serine/threonine-protein kinase haspin (Homo sapiens) (UniProt Q8TF76); conditions: Compound concentration 1000.0 nM
Serine/threonine-protein kinase haspin (Homo sapiens), sequence (Q8TF76 whole entry): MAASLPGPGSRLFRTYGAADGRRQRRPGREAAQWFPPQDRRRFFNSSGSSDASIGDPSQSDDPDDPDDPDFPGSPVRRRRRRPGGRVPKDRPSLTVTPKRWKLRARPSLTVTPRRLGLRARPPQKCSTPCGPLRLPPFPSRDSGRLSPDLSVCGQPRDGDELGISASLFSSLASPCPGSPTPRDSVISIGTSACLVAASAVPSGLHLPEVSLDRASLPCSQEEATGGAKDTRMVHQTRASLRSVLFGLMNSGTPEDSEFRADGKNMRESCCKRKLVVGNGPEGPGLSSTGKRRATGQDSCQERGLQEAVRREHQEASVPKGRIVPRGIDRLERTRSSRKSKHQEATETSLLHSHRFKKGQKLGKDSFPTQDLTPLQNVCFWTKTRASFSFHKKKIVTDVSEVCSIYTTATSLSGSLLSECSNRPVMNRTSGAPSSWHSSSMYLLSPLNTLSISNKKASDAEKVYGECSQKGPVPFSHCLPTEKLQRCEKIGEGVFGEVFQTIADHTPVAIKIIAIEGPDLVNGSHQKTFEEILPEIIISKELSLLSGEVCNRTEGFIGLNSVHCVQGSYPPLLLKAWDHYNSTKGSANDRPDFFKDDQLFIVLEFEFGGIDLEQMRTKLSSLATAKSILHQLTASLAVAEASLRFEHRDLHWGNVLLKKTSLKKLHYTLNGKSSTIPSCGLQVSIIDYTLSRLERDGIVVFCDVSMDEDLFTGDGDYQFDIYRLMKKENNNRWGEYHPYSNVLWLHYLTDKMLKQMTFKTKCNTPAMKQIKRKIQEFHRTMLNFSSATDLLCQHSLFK

[12] = molecular target: Serine/threonine-protein kinase ICK (Homo sapiens) (UniProt Q9UPZ9); conditions: Compound concentration 1000.0 nM
[13] = molecular target: Insulin-like growth factor 1 receptor (Homo sapiens) (UniProt P08069); conditions: Compound concentration 1000.0 nM
[14] = tested on: Mast/stem cell growth factor receptor Kit (Homo sapiens), P10721 [V559D]; conditions: Compound concentration 1000.0 nM
[15] = tested on: Mast/stem cell growth factor receptor Kit (Homo sapiens), P10721 [V559D,V654A]; conditions: Compound concentration 1000.0 nM
[16] = molecular target: Serine/threonine-protein kinase MRCK alpha (Homo sapiens) (UniProt Q5VT25); conditions: Compound concentration 1000.0 nM
[17] = molecular target: Myosin-IIIa (Homo sapiens) (UniProt Q8NEV4); conditions: Compound concentration 1000.0 nM
[18] = molecular target: Serine/threonine-protein kinase Nek6 (Homo sapiens) (UniProt Q9HC98); conditions: Compound concentration 1000.0 nM
Serine/threonine-protein kinase Nek6 (Homo sapiens), sequence (Q9HC98 whole entry): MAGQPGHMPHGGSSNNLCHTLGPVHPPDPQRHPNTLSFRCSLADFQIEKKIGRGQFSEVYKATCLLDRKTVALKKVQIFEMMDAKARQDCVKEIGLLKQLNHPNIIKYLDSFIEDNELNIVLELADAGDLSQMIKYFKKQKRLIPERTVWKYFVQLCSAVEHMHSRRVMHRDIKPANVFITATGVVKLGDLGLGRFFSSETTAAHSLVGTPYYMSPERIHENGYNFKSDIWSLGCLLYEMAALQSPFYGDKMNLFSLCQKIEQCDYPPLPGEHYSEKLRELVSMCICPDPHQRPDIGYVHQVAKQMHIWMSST

[19] = molecular target: Serine/threonine-protein kinase NLK (Homo sapiens) (UniProt Q9UBE8); conditions: Compound concentration 1000.0 nM
Serine/threonine-protein kinase NLK (Homo sapiens), sequence (Q9UBE8 whole entry): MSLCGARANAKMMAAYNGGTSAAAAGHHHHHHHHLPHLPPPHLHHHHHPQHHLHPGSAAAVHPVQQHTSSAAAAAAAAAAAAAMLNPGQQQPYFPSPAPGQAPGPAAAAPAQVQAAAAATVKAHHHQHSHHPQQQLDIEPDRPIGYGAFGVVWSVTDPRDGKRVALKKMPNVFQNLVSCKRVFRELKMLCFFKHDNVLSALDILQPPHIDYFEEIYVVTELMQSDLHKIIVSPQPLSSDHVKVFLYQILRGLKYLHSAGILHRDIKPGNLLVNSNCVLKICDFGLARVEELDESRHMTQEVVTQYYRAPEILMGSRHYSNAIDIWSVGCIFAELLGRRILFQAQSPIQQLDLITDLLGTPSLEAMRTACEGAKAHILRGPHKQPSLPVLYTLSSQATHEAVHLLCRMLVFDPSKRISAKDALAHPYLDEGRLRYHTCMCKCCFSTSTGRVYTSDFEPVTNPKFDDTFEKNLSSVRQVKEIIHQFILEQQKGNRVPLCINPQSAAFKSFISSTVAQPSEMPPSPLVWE

[20] = molecular target: Mitogen-activated protein kinase 13 (Homo sapiens) (UniProt O15264); conditions: Compound concentration 1000.0 nM
Mitogen-activated protein kinase 13 (Homo sapiens), sequence (O15264 whole entry, canonical isoform): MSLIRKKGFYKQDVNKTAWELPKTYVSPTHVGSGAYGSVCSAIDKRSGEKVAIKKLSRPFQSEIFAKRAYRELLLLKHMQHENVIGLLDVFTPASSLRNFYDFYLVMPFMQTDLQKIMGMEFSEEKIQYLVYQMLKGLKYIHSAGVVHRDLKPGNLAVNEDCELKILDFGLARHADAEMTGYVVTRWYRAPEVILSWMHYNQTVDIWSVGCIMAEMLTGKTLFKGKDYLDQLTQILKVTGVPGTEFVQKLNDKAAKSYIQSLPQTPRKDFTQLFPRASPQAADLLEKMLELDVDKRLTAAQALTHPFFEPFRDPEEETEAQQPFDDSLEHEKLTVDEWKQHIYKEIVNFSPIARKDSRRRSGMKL

[21] = tested on: Phosphatidylinositol 4,5-bisphosphate 3-kinase catalytic subunit alpha isoform (Homo sapiens), P42336 [C420R]; conditions: Compound concentration 1000.0 nM
Phosphatidylinositol 4,5-bisphosphate 3-kinase catalytic subunit alpha isoform (Homo sapiens), P42336 [C420R], sequence (P42336 whole entry C420R, canonical isoform): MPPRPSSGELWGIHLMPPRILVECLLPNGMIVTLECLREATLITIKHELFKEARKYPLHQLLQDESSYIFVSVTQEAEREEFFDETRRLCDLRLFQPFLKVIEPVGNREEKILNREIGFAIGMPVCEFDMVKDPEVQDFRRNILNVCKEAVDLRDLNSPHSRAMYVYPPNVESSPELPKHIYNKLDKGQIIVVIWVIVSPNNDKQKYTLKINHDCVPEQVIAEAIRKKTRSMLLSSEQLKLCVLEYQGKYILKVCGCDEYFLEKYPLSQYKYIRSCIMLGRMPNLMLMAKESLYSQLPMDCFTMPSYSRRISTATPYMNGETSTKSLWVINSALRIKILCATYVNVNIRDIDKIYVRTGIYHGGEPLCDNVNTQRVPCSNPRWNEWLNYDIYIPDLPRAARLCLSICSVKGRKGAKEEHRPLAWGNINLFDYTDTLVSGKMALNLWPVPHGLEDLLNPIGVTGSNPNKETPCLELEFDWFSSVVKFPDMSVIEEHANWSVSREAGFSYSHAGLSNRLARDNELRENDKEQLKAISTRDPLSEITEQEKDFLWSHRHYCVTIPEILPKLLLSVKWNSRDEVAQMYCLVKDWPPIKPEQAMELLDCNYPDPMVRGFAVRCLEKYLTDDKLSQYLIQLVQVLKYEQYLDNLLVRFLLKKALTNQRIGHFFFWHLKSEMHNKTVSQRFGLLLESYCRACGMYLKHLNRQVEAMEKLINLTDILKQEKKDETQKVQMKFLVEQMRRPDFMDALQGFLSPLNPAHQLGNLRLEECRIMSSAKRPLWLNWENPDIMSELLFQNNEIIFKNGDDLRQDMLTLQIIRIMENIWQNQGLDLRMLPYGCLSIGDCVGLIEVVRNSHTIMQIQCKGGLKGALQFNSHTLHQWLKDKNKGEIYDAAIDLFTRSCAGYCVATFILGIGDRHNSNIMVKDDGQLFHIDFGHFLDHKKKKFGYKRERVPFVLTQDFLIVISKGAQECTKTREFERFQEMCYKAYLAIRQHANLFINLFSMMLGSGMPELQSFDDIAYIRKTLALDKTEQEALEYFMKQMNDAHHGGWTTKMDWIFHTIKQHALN

[22] = tested on: Phosphatidylinositol 4,5-bisphosphate 3-kinase catalytic subunit alpha isoform (Homo sapiens), P42336 [Q546K]; conditions: Compound concentration 1000.0 nM
[23] = molecular target: Serine/threonine-protein kinase PLK2 (Homo sapiens) (UniProt Q9NYY3); conditions: Compound concentration 1000.0 nM
[24] = molecular target: Serine/threonine-protein kinase PLK4 (Homo sapiens) (UniProt O00444); conditions: Compound concentration 1000.0 nM
[25] = molecular target: Protein-tyrosine kinase 2-beta (Homo sapiens) (UniProt Q14289); conditions: Compound concentration 1000.0 nM
[26] = molecular target: SRSF protein kinase 3 (Homo sapiens) (UniProt Q9UPE1); conditions: Compound concentration 1000.0 nM
[27] = molecular target: Testis-specific serine/threonine-protein kinase 3 (Homo sapiens) (UniProt Q96PN8); conditions: Compound concentration 1000.0 nM
[28] = molecular target: Dual specificity protein kinase TTK (Homo sapiens) (UniProt P33981); conditions: Compound concentration 1000.0 nM
Dual specificity protein kinase TTK (Homo sapiens), sequence (P33981 whole entry): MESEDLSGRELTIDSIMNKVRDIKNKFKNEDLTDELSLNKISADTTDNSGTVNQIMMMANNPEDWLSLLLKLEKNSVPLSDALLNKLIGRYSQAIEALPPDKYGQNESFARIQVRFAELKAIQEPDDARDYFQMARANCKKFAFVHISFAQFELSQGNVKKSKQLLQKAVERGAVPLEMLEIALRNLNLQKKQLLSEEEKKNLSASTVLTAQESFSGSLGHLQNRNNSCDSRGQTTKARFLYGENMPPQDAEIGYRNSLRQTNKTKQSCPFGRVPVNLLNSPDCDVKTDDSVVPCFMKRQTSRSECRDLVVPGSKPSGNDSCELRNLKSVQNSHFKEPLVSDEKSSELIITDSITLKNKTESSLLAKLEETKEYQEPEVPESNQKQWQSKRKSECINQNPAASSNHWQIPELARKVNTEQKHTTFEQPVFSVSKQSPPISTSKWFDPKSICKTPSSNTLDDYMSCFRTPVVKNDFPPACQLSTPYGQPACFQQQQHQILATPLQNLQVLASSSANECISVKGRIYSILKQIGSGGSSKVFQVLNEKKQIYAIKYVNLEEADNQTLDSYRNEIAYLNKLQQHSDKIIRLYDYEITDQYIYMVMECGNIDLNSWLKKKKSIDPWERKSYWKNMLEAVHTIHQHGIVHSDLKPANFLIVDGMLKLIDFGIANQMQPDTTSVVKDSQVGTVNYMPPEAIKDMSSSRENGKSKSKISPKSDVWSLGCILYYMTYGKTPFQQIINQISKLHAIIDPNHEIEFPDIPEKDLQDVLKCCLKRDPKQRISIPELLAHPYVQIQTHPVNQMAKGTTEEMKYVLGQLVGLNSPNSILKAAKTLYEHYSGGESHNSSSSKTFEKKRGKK

[29] = molecular target: Serine/threonine-protein kinase 32B (Homo sapiens) (UniProt Q9NY57); conditions: Compound concentration 1000.0 nM
[30] = molecular target: T1, D(4) dopamine receptor (Homo sapiens) (UniProt P21917); conditions: Compound concentration 10.0 uM
T1 sequence (whole entry): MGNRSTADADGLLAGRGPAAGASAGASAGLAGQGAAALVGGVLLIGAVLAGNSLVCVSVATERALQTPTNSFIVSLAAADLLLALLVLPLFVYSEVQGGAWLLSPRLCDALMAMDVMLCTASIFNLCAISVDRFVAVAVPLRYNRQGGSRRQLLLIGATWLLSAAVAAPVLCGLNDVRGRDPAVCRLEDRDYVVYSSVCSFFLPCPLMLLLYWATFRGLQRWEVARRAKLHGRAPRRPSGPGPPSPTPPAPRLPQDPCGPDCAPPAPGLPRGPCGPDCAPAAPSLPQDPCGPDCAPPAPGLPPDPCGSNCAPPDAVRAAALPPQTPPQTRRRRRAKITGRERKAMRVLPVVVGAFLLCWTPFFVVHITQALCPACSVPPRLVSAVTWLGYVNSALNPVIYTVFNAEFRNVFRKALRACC

[31] = molecular target: T2, Alpha-1D adrenergic receptor (Homo sapiens) (UniProt P25100); conditions: Compound concentration 10.0 uM
T2 sequence (whole entry): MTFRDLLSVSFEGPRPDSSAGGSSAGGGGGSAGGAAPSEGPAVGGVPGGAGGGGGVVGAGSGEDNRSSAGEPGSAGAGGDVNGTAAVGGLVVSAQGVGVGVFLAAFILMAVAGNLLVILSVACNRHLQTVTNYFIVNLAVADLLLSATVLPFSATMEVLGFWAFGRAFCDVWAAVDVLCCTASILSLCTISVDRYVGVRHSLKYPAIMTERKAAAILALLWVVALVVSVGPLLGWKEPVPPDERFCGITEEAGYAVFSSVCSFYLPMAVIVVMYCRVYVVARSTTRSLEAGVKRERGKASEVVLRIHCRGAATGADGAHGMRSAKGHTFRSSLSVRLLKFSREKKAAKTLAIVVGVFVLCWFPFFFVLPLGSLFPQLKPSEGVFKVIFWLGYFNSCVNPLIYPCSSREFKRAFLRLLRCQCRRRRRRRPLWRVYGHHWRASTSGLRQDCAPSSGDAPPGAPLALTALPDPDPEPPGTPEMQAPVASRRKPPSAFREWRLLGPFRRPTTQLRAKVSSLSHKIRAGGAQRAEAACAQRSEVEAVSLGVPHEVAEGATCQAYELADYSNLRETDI

Somatostatin receptor type 4 (Homo sapiens), sequence (P31391 whole entry): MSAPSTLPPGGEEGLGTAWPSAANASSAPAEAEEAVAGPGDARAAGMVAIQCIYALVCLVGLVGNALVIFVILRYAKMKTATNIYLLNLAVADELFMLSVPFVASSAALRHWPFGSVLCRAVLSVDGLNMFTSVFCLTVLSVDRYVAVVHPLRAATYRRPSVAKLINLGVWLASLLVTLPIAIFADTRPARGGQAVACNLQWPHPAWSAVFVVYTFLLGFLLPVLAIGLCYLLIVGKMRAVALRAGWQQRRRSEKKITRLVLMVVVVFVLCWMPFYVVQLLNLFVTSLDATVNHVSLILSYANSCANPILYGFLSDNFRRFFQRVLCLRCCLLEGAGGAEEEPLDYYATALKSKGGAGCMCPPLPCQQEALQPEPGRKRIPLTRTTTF

| Compound | % Inhibition of Control Agonist Response (Mean n=2) [1] | % of Control Agonist Response (Mean n=2) [1] | residual activity [2] | residual activity [3] | residual activity [4] | residual activity [5] | residual activity [6] | residual activity [7] | residual activity [8] | residual activity [9] | residual activity [10] | residual activity [11] | residual activity [12] | residual activity [13] | residual activity [14] | residual activity [15] | residual activity [16] | residual activity [17] | residual activity [18] | residual activity [19] | other results |
| --- | --- | --- | --- | --- | --- | --- | --- | --- | --- | --- | --- | --- | --- | --- | --- | --- | --- | --- | --- | --- | --- |
| O=C(N1CCS(=O)(=O)CC1)N1C[C@H](c2ccc(OC(F)(F)F)cc2)C[C@H](c2nc(C3CC3)no2)C1 [BAY-386] | -3.3% | -13% | 100% | 100% | 65% | 100% | 100% | 93% | 100% | 96% | 80% | 95% | 100% | 100% | 100% | 100% | 100% | 100% | 98% | 100% | residual activity [20]: 100%; residual activity [21]: 100%; residual activity [22]: 83%; residual activity [23]: 100%; residual activity [24]: 100%; residual activity [25]: 99%; residual activity [26]: 100%; residual activity [27]: 100%; residual activity [28]: 82%; residual activity [29]: 100%; inhibition [30]: 5.24%; inhibition [31]: 2.45% |
| Cc1noc([C@H]2C[C@@H](c3ccc(C(F)(F)F)cc3)CN(C(=O)N3CCS(=O)(=O)C3)C2)n1 [BAY-448] | 1.2% | -2% | 100% | 69% | 100% | 100% | 100% | 76% | 100% | 100% | 94% | 100% | 62% | 100% | 100% | 100% | 100% | 100% | 100% | 70% | residual activity [20]: 100%; residual activity [21]: 84%; residual activity [22]: 100%; residual activity [23]: 100%; residual activity [24]: 88%; residual activity [25]: 100%; residual activity [26]: 100%; residual activity [27]: 100%; residual activity [28]: 100%; residual activity [29]: 68%; inhibition [30]: 6.3%; inhibition [31]: -1.84% |
